Activity calls are given as the source filed them. Where a SMILES comes first, the peptide text is derived from it. Bridges are numbered along the chain shown (N, C = ends). The star is where a group is joined. Acm = CC(=O)NC*; tBu = CC(C)(C)*; Cam = NC(=O)C*
How the values were obtained:
[1] = target: Relaxin-3 receptor 2 (Homo sapiens) (UniProt Q8TDU9); assay: Agonist activity at human RXFP4 transfected in CHO-K1 cells at 10 uM by beta-galactosidase reporter gene assay relative to forskolin; format: functional, cell-based
Relaxin-3 receptor 2 (Homo sapiens), sequence (Q8TDU9 whole entry): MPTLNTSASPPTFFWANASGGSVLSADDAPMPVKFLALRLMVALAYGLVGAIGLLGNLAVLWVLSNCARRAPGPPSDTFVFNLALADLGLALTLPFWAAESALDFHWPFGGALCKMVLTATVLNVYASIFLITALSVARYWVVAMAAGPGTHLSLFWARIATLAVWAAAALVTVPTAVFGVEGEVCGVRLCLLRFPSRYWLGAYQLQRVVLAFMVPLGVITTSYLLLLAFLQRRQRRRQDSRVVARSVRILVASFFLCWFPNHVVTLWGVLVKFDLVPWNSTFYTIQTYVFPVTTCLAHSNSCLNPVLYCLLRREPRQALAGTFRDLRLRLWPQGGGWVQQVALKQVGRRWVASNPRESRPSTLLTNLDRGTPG

[2] = target: Relaxin-3 receptor 2 (Homo sapiens) (UniProt Q8TDU9); assay: Displacement of Eu(A)-mINSL5 acid from human RXFP4 transfected in CHO-K1 cells by fluorescence-based assay; format: cell-based
[3] = target: Relaxin-3 receptor 2 (Homo sapiens) (UniProt Q8TDU9); assay: Agonist activity at human RXFP4 transfected in CHO-K1 cells assessed as inhibition of forskolin-induced cAMP production by beta-galactosidase reporter gene assay; format: functional, cell-based
[4] = target: Relaxin-3 receptor 2 (Homo sapiens) (UniProt Q8TDU9); assay: Agonist activity at human RXFP4 transfected in CHO-K1 cells at 0.01 nM to 1000 nM by beta-galactosidase reporter gene assay relative to forskolin; format: functional, cell-based
[5] = target: Relaxin-3 receptor 2 (Homo sapiens) (UniProt Q8TDU9); assay: Agonist activity at human RXFP4 transfected in CHO-K1 cells up to 10 uM by beta-galactosidase reporter gene assay relative to forskolin; format: functional, cell-based

H-SRQTVKLAGLDYVRTVIYIAASSRW-OH
inactive: Emax [1] | pIC50 [2] | pEC50 [3]

CSCC[C@H](NC(=O)[C@H](CO)NC(=O)[C@H](CSCC(N)=O)NC(=O)CNC(=O)[C@H](CCC(=O)O)NC(=O)[C@H](CCCNC(=N)N)NC(=O)[C@H](CSC(C)(C)C)NC(=O)[C@H](CSCC(N)=O)NC(=O)[C@H](CC(C)C)NC(=O)[C@H](C)NC(=O)[C@H](CCC(N)=O)NC(=O)[C@H](CC(C)C)NC(=O)[C@H](CC(=O)O)NC(=O)[C@@H](N)CCCNC(=N)N)C(=O)N[C@@H](CCCCN)C(=O)N[C@@H](CCC(=O)O)C(=O)N[C@@H](CC(C)C)C(=O)N[C@@H](CO)C(=O)N[C@H](C(=O)N[C@@H](CC(C)C)C(=O)N[C@@H](CSCNC(C)=O)C(=O)O)[C@@H](C)O (H-RDLQALC(Cam)C(tBu)REGC(Cam)SMKELSTLC(Acm)-OH)
inactive: Emax [4] | pIC50 [2] | pEC50 [3]

CSCC[C@H](NC(=O)[C@H](CO)NC(=O)[C@@H]1CSSC[C@H](NC(=O)[C@H](CC(C)C)NC(=O)[C@H](C)NC(=O)[C@H](CCC(N)=O)NC(=O)[C@H](CC(C)C)NC(=O)[C@H](CC(=O)O)NC(=O)[C@@H](N)CCCNC(=N)N)C(=O)N[C@@H](CSC(C)(C)C)C(=O)N[C@@H](CCCNC(=N)N)C(=O)N[C@@H](CCC(=O)O)C(=O)NCC(=O)N1)C(=O)N[C@@H](CCCCN)C(=O)N[C@@H](CCC(=O)O)C(=O)N[C@@H](CC(C)C)C(=O)N[C@@H](CO)C(=O)N[C@H](C(=O)N[C@@H](CC(C)C)C(=O)N[C@@H](CSCNC(C)=O)C(=O)O)[C@@H](C)O (H-RDLQALCC(tBu)REGCSMKELSTLC(Acm)-OH; disulfide 7-12)
inactive: Emax [4] | pIC50 [2] | pEC50 [3]

H-SRQTVKLAGLDYVRTVIYIAR-OH
inactive: Emax [5] | pIC50 [2] | pEC50 [3]

Source: ChEMBL document CHEMBL3098066, “Minimum active structure of insulin-like peptide 5” (J Med Chem, 2013)
